Data: patent publication US5788964A, “Method for sensitization of cancer cells for killer cell mediated lysis” (Orion-Yhtyma Oy, priority 1996, dated 1998)

Columns and labels:
[1] = tested on: P815 tumor cells; experiment: Winn assay, pretreated P815 cells mixed with LAK cells 1:25 (Example 2); assay type: in vivo, DBA/2 mice; conditions: target:effector 1:25, s.c., groups of 4
Protocol: (§1) For the generation of LAK cells, 2×10^6 /ml of spleen cells from female DBA/N2 mice were cultured for 5 days in RPMI-1640 medium supplemented with 10%FCS, 5×10^-5 M 2-mercaptoethanol and 500 U/mI of human recombinant interleukin-2 at 370C in humidified air containing 5% CO2.

[2] = tested on: Yac1 murine lymphoma; experiment: NK cell mediated cytotoxicity (51Cr release); conditions: for target cell lysis, effector cells pretreated (in words): NK effectors pretreated; for lysis of treated targets by treated effectors (in words) / target cell lysis, target cells treated (in words): NK effectors; for lysis of treated targets by treated effectors (in words): both treated; for target cell lysis, target cells treated (in words): target cells treated for 4 h prior to the cytotoxic reaction
Protocol: (§2) Target cells were labeled with ^51 Cr for 1 hr, then washed. The specific ^51 Cr release was determined after 4 hours of incubation at 37° C., 5% CO2 (target/effector 1:25).
Target cells: Yac1 murine lymphoma
Effector cells: Spleen lymphocytes of female Fishner rats

[3] = tested on: P815 (NK resistant murine mastocytoma); experiment: LAK cell mediated cytotoxicity (51Cr release), rat LAK; conditions: for target cell lysis, effector cells pretreated (in words): LAK effectors pretreated; for lysis of treated targets by treated effectors (in words) / target cell lysis, target cells treated (in words): LAK effectors; for lysis of treated targets by treated effectors (in words): both treated; for target cell lysis, target cells treated (in words): target cells treated for 4 h prior to the cytotoxic reaction
Protocol: Rat spleen cells were used as effector cells either without activation (NK cells), or after treatment with human IL-2 (LAK), or after stimulation with the Nb2 rat lymphoma in mixed cultures (CTL). The Yac-1 murine lymphoma was used as a target for NK cells, the P815 mastocytoma for LAK cells and Nb2 cells for CTL. […] Target cells were labeled with ^51 Cr for 1 hr, then washed. The specific ^51 Cr release was determined after 4 hours of incubation at 37° C., 5% CO2 (target/effector 1:25).
Target cells: P815 (NKresistant murine mastocytoma)
Effectar cells: Spleen cells of Fischer rats were cultured in medium
supplemented with 500 U/ml riL2 for 6 days at 37° C. and 5%

[4] = tested on: P815 cells; experiment: 51Cr assay, killing of P815 cells by LAK cells from DBA/N2 mice (Example 2); conditions: Mus musculus, P815, 4 h, read-out: P815 cells killed by LAK cells
Protocol: as §1

[5] = tested on: P815 mastocytoma; experiment: Immunotherapy of P815 mastocytoma, drug by gavage and LAK cells (Example 6); assay type: in vivo, DBA/2 mice; conditions: 10 mg/kg/day by gavage, with or without LAK as labelled
Protocol: DBA/2 female mice were injected s. c. with 10^4 P815 tumor cells. […] Two days later 25×10^4 LAK cells were given i.p., LAK was injected three times more, four days apart. Drug treatment was maintained from day 14 until day 30.

[6] = tested on: Nb2 rat lymphoma; experiment: Target cell destruction by cytolytic lymphocytes (CTL) generated in mixed cultures (51Cr release); conditions: for target cell lysis, effector cells pretreated (in words): CTL effectors pretreated; for lysis of treated targets by treated effectors (in words) / target cell lysis, target cells treated (in words): CTL effectors; for lysis of treated targets by treated effectors (in words): both treated; for target cell lysis, target cells treated (in words): target cells treated for 4 h prior to the cytotoxic reaction
Protocol: as §2
Target cells: Nb2 rat lymphoma
Effector cells: Cytotoxic Tlymphocytes (CTL) generated in mixed cultures,
Responder: Spleen cells of Fischer rats. Stimulator: Nb2 cells (thymic

[7] = tested on: tumor estrogen receptors; conditions: background statement; cited from earlier work
[8] = tested on: P815 tumor; experiment: P815 tumor growth, drug in drinking water with or without LAK (Example 3); assay type: in vivo, mice; conditions: drinking water TX 100 μg/ml, TO 400 μg/ml; LAK 1:25 then weekly for 3 weeks

Compound	animals protected / survival [1]	target cell lysis, effector cells pretreated (in words) [2]	lysis of treated targets by treated effectors (in words) [2]	target cell lysis, target cells treated (in words) [2]	target cell lysis, effector cells pretreated (in words) [3]	lysis of treated targets by treated effectors (in words) [3]	target cell lysis, target cells treated (in words) [3]	cytotoxicity at 1 µM [4] [%]	partial regression [5]	target cell lysis, effector cells pretreated (in words) [6]	lysis of treated targets by treated effectors (in words) [6]	target cell lysis, target cells treated (in words) [6]	inhibition of estrogen-induced growth [7]	tumor free animals [8]	cytotoxicity at 5 µM [4] [%]
CC/C(=C(\c1ccccc1)c1ccc(OCCN(C)C)cc1)c1ccccc1 [TX, tamoxifen]	killed all the animals	no such enhancing effect	lysed treated targets as efficiently as did nontreated effectors	enhanced target cell lysis in a dose dependent fashion	no such enhancing effect	lysed treated targets as efficiently as did nontreated effectors	enhanced target cell lysis in a dose dependent fashion	52	one	no such enhancing effect	lysed treated targets as efficiently as did nontreated effectors	enhanced target cell lysis in a dose dependent fashion	inhibit estrogen-induced growth by competitive antagonism of tumor estrogen receptors	–	–
CN(C)CCOc1ccc(/C(=C(/CCCl)c2ccccc2)c2ccccc2)cc1 [TO, toremifene]	1 of 4	no such enhancing effect	lysed treated targets as efficiently as did nontreated effectors	enhanced target cell lysis in a dose dependent fashion	no such enhancing effect	lysed treated targets as efficiently as did nontreated effectors	enhanced target cell lysis in a dose dependent fashion	–	one	no such enhancing effect	lysed treated targets as efficiently as did nontreated effectors	enhanced target cell lysis in a dose dependent fashion	–	one	51
